Reference: ChEMBL document CHEMBL1127436, “[(3-Pyridylalkyl)piperidylidene]benzocycloheptapyridine derivatives as dual antagonists of PAF and histamine” (J Med Chem, 1994)

Key:
Type in all cases: functional
[1] = tested on: Mus musculus; experiment: Antiallergic activity was evaluated using active anaphylactic test after po administration in mice; conditions: read-out: ID50 (the source's name)
[2] = species: Cavia porcellus; experiment: Tested for concentration required to inhibit histamine -induced ileum contraction
[3] = species: Oryctolagus cuniculus; experiment: Concentration required to inhibit PAF-induced maximum aggregation
[4] = species: Cavia porcellus; experiment: Tested for concentration required to inhibit H1 histamine -induced guinea pig ileum contraction
[5] = species: Mus musculus; experiment: Dose required to inhibit PAF-induced mortality; conditions: read-out: ID50 (the source's name)
[6] = tested on: Rattus norvegicus; experiment: Intravenous dose required to reduce the lowering of the arterial blood pressure caused by PAF; conditions: for ED50: Rattus norvegicus, Arterial blood, iv, read-out: ID50 (the source's name)
[7] = species: Rattus norvegicus; experiment: Tested for dose required to inhibit endotoxin induced mortality in rats; conditions: read-out: ID50 (the source's name)
[8] = species: Mus musculus; experiment: Tested for dose required to inhibit endotoxin induced mortality in mice; conditions: read-out: ID50 (the source's name)
[9] = tested on: Mus musculus; experiment: Tested for effect on central nervous system in mice at 100 mg/kg peroral dose barbiturate-sleeping time (BST); conditions: route oral
[10] = tested on: Mus musculus; experiment: Tested for effect on central nervous system in mice at 100 mg/kg peroral dose for spontaneous motor activity (SMA) expressed as percentage relative to control; conditions: route oral
[11] = species: Rattus norvegicus; experiment: Tested for dose required to inhibit antigen induced increased permeability; conditions: read-out: ID50 (the source's name)
[12] = tested on: Rattus norvegicus; experiment: Tested at 10 (mg/kg) intravenous dose for percent inhibition of the arterial blood pressure in normotensive rats caused by histamine
[13] = tested on: Mus musculus; experiment: Antiallergic activity was evaluated using active anaphylactic test after po administration of 10 (mg/kg) in mice
[14] = tested on: Rattus norvegicus; experiment: Tested at 10 (mg/kg) intravenous dose for percent inhibition required to reduce the lowering of the arterial blood pressure caused by histamine
[15] = tested on: Rattus norvegicus; experiment: Tested at 30 (mg/kg) dose for percent inhibition required to inhibit mortality in sensitized animals by histamine
[16] = tested on: Mus musculus; experiment: Antiallergic activity was evaluated using active anaphylactic test after po administration of 30 (mg/kg) in mice

SMILES | ED50 [1] [mg/kg] | IC50 [3] [nM] | IC50 [4] [nM] | ED50 [5] [mg/kg] | ED50 [6] [mg/kg] | also measured
Clc1ccc2c(c1)CCc1cccnc1C2=C1CCN(Cc2cccnc2Cl)CC1 | 4.5 | > 100000 | – | – | – | IC50 [2]: 350 nM
O=C(O)c1cncc(CN2CCC(=C3c4ccc(Cl)cc4CCc4cccnc43)CC2)c1 | 6.5 | 85000 | 350 | > 30 | > 5 | –
CN(C)CCOC(c1ccccc1)c1ccccc1 [DIPHENHYDRAMINE] | – | – | – | – | – | ED50 [7]: > 5 mg/kg; ED50 [8]: > 10 mg/kg
COc1ncccc1CN1CCC(=C2c3ccc(Cl)cc3CCc3cccnc32)CC1 | 17 | 6000 | – | – | > 5 | –
COc1ccc(C(=O)N2CCC(=C3c4ccc(Cl)cc4CCc4cccnc43)CC2)cn1 | 5.5 | > 100000 | 34 | 30 | – | ID50 [6]: > 5 mg/kg
CC(C)(C)c1ccc(C(O)CCCN2CCC(C(O)(c3ccccc3)c3ccccc3)CC2)cc1 (centres undefined) [TERFENADINE] | – | – | – | – | – | X [9]: 133 min; Relative to control [10]: 90%
O=C(c1cccnc1Cl)N1CCC(=C2c3ccc(Cl)cc3CCc3cccnc32)CC1 | > 30 | > 100000 | – | – | – | IC50 [2]: 130 nM
CCOC(=O)N1CCC(=C2c3ccc(Cl)cc3CCc3cccnc32)CC1 [LORATADINE] | 19 | – | – | – | – | ED50 [7]: > 5 mg/kg; ED50 [11]: 2.4 mg/kg; X [9]: 320 min; Inhibition [12]: 66.3%; Relative to control [10]: 106%; ED50 [8]: > 10 mg/kg
COC(=O)c1cncc(CN2CCC(=C3c4ccc(Cl)cc4CCc4cccnc43)CC2)c1.Cl | – | > 100000 | 190 | – | > 5 | –
O=C(c1cccnc1O)N1CCC(=C2c3ccc(Cl)cc3CCc3cccnc32)CC1 | – | > 100000 | – | > 30 | – | Inhibition [13]: 56%
O=C(c1cc[n+]([O-])cc1)N1CCC(=C2c3ccc(Cl)cc3CCc3cccnc32)CC1 | 12 | 220 | – | – | – | Inhibition [14]: 46.2%; IC50 [2]: 210 nM
Clc1ccc2c(c1)CCc1cccnc1C2=C1CCN(Cc2cncc(Br)c2)CC1 | 17 | 720 | 280 | 10 | – | Inhibition [12]: 61.9%
Cc1ccc(CN2CCC(=C3c4ccc(Cl)cc4CCc4cccnc43)CC2)cn1.Cl | 12 | 9000 | 37 | – | – | Inhibition [12]: 96.4%
O=C(c1ccc(O)nc1)N1CCC(=C2c3ccc(Cl)cc3CCc3cccnc32)CC1 | > 30 | 1500 | 390 | > 3 | 1.5 | Inhibition [12]: 67%
Clc1ccc2c(c1)CCc1cccnc1C2=C1CCN(Cc2ccncc2)CC1 | 6.1 | 1800 | 94 | – | – | Inhibition [12]: 85.1%
COC(=O)c1ccncc1C(=O)N1CCC(=C2c3ccc(Cl)cc3CCc3cccnc32)CC1 | 11 | 17000 | – | > 30 | > 5 | –

SMILES | ED50 [1] [mg/kg] | IC50 [3] [nM] | IC50 [4] [nM] | ED50 [5] [mg/kg] | ED50 [6] [mg/kg] | also measured
O=C(c1cncc(Br)c1)N1CCC(=C2c3ccc(Cl)cc3CCc3cccnc32)CC1 | > 30 | 3400 | – | > 30 | > 5 | –
[O-][n+]1cccc(CN2CCC(=C3c4ccc(Cl)cc4CCc4cccnc43)CC2)c1 | – | 14000 | – | > 30 | > 5 | Inhibition [15]: 56%
CC(=O)N1CCC(=C2c3ccc(Cl)cc3CCc3cccnc32)CC1 [SCH-37370] | 19 | 840 | 100 | – | – | ED50 [7]: > 5 mg/kg; ED50 [11]: 10 mg/kg; X [9]: 296 min; Inhibition [12]: 55.1%; ED50 [8]: > 10 mg/kg
Clc1ccc2c(c1)CCc1cccnc1C2=C1CCN(Cc2cccnc2)CC1 | 6.7 | 4000 | 93 | – | – | Inhibition [12]: 83.6%
COc1ccc(CN2CCC(=C3c4ccc(Cl)cc4CCc4cccnc43)CC2)cn1 | 5.9 | 37000 | 380 | < 30 | – | –
Cc1cncc(CN2CCC(=C3c4ccc(Cl)cc4CCc4cccnc43)CC2)c1 [RUPATADINE] | 13 | 3700 | – | – | – | ED50 [7]: 0.5 mg/kg; ED50 [11]: 1.2 mg/kg; X [9]: 138 min; Inhibition [12]: 89%; Relative to control [10]: 97%; ED50 [8]: 1.2 mg/kg
O=C(c1ccc(Cl)nc1)N1CCC(=C2c3ccc(Cl)cc3CCc3cccnc32)CC1 | 1.9 | > 100000 | – | 20 | > 1 | IC50 [2]: 64 nM
Cc1ncccc1CN1CCC(=C2c3ccc(Cl)cc3CCc3cccnc32)CC1 | – | 13000 | 270 | – | – | Inhibition [16]: 50%
Cc1ccncc1CN1CCC(=C2c3ccc(Cl)cc3CCc3cccnc32)CC1 | – | 15000 | 35 | 10 | – | Inhibition [16]: 56%
Cc1cncc(C(=O)N2CCC(=C3c4ccc(Cl)cc4CCc4cccnc43)CC2)c1 | 12 | 3100 | 350 | – | > 5 | –
Cl.Clc1ccc2c(c1)CCc1cccnc1C2=C1CCN(CCc2cccnc2)CC1 | > 30 | 34000 | 360 | > 30 | > 5 | Inhibition [12]: 95.4%
Clc1ccc2c(c1)CCc1cccnc1C2=C1CCN(Cc2ccc(Cl)nc2)CC1 | 6.9 | > 100000 | – | 20 | – | –
CSc1ncccc1C(=O)N1CCC(=C2c3ccc(Cl)cc3CCc3cccnc32)CC1 | – | 20000 | – | > 30 | > 5 | Inhibition [13]: 50%
CC(c1cccnc1)N1CCC(=C2c3ccc(Cl)cc3CCc3cccnc32)CC1.Cl (centres undefined) | > 30 | 8200 | – | > 30 | > 5 | –
CN1C(=O)CN=C(c2ccccc2)c2cc(Cl)ccc21 [DIAZEPAM] | – | – | – | – | – | Relative to control [10]: 54%
